PMC6788984, “High-potency ligands for DREADD imaging and activation in rodents and monkeys” (Nature Communications, 2019)
Where “and” joins values, the source holds several entries; their conditions need not be identical. Equal values may be shown once.

What was measured:
WT mice = assay: [18F]FDG PET metabolic mapping in WT mice; format: in vivo, mouse
Description: Mice (D1-hM3Dq, D1-hM4Di or WT littermates, see above) were habituated to experimenter handling and fasted 16 h before the experiment. On the day of the experiment, mice received an IP injection of vehicle (1 ml kg^−1) and were placed back into their home cages. Ten minutes later, mice were injected (IP) with 11 MBq of 2-deoxy-2-[^18F]fluoro-D-glucose (FDG, Cardinal Health) and placed back into their home cages. After 30 min, mice were anesthetized with 1.5% isoflurane, placed on a custom-made bed of a nanoScan small animal PET/CT scanner (Mediso Medical Imaging Systems) and scanned for 20 min on a static acquisition protocol, followed by a CT scan. […] Voxel-based repeated measures with Student’s t test comparing baseline to drug were performed, and the resulting parametric images were filtered for statistically significant (p < 0.05) clusters larger than 100 contiguous voxels. All statistical parametric mapping analyses were performed using Matlab R2016 (Mathworks) and SPM12 (University College London).

endogenous binding sites = format: in vivo; conditions: monkey
Description: (§1) All macaque studies were acquired dynamically on the Focus 220 PET scanner (Siemens Medical Solutions, Knoxville, TN). The Focus 220 is a dedicated pre-clinical scanner with a transaxial FOV of 19 cm and an axial FOV of 7.5 cm. Image resolution is <2 mm within the central 5 cm FOV.
(§2) After initial evaluation the monkey was sedated with ketamine (10 mg kg^−1) followed by ketoprofen (as an analgesic) and glycopyrrolate (for salvia reduction), all weight dependent IM injections. The monkey would then be placed in the supine position, intubated with a tracheal tube. Anesthesia was maintained by 1–3.5% isoflurane and oxygen, the monkey’s head was positioned and immobilized for optimal positioning of the brain and moved into the scanner. A 10-min transmission scan using a Co-57-point source for attenuation correction was performed. One iv was inserted, if possible, in the right arm and one in the right leg for injection of tracer and blocking agent. The monkey was always monitored while anesthetized. HR, BP, O2 saturation, RR, three lead ECG, rectal temperature was documented every 15 min.
Arterial blood sampling was acquired throughout the study using an indwelling femoral port. The first 2 min samples were collected every 15 s then at 3, 5, 10, 30, 60, 90, and 120 min post tracer injection. All scans were acquired for 120 min using list mode acquisition. […]
To determine the arterial input function for the radiotracers injected in rhesus monkeys radioligand concentrations in the arterial plasma were corrected by the unchanged parent fraction. […] The unchanged plasma parent fractions were determined by radio-HPLC on an X-terra® C18 column (10 µm, 7.8 mm × 300 mm, Waters Corp., Milford, MA), and eluted with MeOH:H2O:Et3N (80:20:0.1; by volume) at an isocratic flow rate of 4.0 mL min^−1. Eluates were monitored with an in-line flow-through NaI(Tl) scintillation detector (Bioscan). Data were stored and analyzed on a PC using the software “Bio-ChromeLite”. […] Plasma free fraction was determined according to our previous methods.

hM4Di = biological target: T1, hM4Di (Homo sapiens, UniProt P08173, A203G/Y113C); assay: [11C]clozapine PET occupancy in monkey expressing hM4Di in the amygdala; format: in vivo, rhesus monkey (Macaca mulatta); set-up: expressed in transfected cells; host or cells: rhesus monkey (Macaca mulatta) right amygdala, lentivirus-transduced neurons
T1 sequence (P08173 1-479 Y113C/A203G): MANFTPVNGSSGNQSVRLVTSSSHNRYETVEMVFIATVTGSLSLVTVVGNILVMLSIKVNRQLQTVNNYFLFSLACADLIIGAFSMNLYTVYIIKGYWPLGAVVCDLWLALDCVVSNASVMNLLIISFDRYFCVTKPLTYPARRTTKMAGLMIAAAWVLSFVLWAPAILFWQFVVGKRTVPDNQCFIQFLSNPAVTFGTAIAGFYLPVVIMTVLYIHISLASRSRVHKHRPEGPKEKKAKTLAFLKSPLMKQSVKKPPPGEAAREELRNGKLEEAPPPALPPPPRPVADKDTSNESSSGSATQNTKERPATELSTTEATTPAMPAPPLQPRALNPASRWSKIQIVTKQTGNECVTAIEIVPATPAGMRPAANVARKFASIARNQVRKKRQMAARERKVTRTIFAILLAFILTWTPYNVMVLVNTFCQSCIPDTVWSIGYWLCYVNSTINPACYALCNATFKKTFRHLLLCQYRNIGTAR
Description: Lentivirus expressing an hM4Di-CFP fusion protein under an hSyn promoter[11] with a titer of >10^9 infectious particles was loaded into a 100 µL glass syringe (Hamilton Co., MA). The 31-gauge needle of the syringe was sheathed with a silica capillary (450 µm OD) to create a step 1 mm from the base of the aperture. The syringe was mounted in a Nanomite pump (Harvard Apparatus, Cambridge, MA). The needle was lowered through the incision in the dura mater to each of the pre-calculated target sites and 10 or 20 µL was infused at a rate of 1 µL min^−1. Each monkey received a total of between 10 and 12 injections (for a total injection volume of 120–240 µL). Post-infusion, the needle was left in situ for 10 min after each injection to allow pressure from the infusate to dissipate. The needle was then slowly removed. At the completion of the injection series the soft tissues were sutured together in anatomical layers.
as §1, §2
Arterial blood sampling was acquired throughout the study using an indwelling femoral port. The first 2 min samples were collected every 15 s then at 3, 5, 10, 30, 60, 90, and 120 min post tracer injection. All scans were acquired for 120 min using list mode acquisition.
Scan data were histogrammed into 33 frames (6 × 30 s, 3 × 1 min, 2 × 2 min, and 22 × 5 min). Reconstruction was performed by Filtered Back Projection with scatter correction. After completion of the last study of the day, isoflurane was cut off. The monkey was gradually awakened, moved to the housing facility and fully recovered.

[1] = tested on: endogenous clozapine-binding sites; assay: Autoradiography: displacement of [3H]clozapine in WT / non-DREADD mouse brain tissue; conditions: individual values
From the text: (§3) Flash frozen tissue (both rodents and the monkey) was sectioned (20 µm) on a cryostat (Leica, Germany) and thaw mounted onto ethanol-washed glass slides. […] Slides were air dried and placed in a Hypercassette™ (Amersham Biosciences) and covered with a BAS-TR2025 Storage Phosphor Screen (FujiFilm, Japan). The slides were exposed to the screen for 5–7 days and imaged using a phosphor imager (Typhoon FLA 7000; GE Healthcare).

hM3Dq = hM3Dq (Homo sapiens, UniProt P20309, A239G/Y149C); assay: Autoradiography: displacement of [3H]clozapine from hM3Dq in mouse brain sections; format: binding; set-up: 026220; host or cells: mouse brain, dopamine D1 receptor-expressing neurons (transgene); conditions: hM3Dq and hM4Di; up to 10 nM
Sequence of hM3Dq (P20309 whole entry Y149C/A239G): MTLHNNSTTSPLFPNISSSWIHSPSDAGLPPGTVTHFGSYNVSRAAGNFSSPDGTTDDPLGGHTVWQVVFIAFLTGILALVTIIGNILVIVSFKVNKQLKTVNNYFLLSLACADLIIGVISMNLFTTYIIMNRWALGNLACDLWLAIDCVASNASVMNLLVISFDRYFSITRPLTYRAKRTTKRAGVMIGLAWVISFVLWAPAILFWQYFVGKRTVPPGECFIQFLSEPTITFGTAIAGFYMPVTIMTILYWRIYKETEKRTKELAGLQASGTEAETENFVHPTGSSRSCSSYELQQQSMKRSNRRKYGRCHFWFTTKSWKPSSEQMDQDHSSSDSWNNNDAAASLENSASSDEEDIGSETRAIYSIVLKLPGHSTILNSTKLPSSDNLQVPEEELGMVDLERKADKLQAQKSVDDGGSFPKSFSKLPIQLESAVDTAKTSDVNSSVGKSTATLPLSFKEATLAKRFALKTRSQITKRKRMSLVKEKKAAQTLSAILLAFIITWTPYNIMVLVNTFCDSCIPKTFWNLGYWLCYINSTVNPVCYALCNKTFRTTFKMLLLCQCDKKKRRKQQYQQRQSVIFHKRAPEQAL
From the text: as §3

Compound: c1ccc2c(c1)N=C(N1CCNCC1)c1ccccc1N2 [C21]
- brain metabolic activity ([18F]FDG) (WT mice; 1 mg/kg IP, 1 mg/kg): significant changes in brain metabolic activity
- brain metabolic activity ([18F]FDG) (WT mice; 1 mg/kg IP, listed as Compound 21, 1 mg/kg): decreased metabolic activity of multiple networks
- off-target effects (endogenous binding sites; 10 mg/kg): extensive displacement of [^11C]clozapine binding at endogenous binding sites and non-specific effects
- in vivo DREADD occupancy (hM4Di; 1 mg/kg IV): no measurable occupancy
- hM4Di occupancy (hM4Di; 10 mg/kg): ~ 50%

Compound: CCN1CCN(C2=Nc3cc(Cl)ccc3Nc3c(F)cccc32)CC1 [JHU37160, 8-Chloro-11-(4-ethylpiperazin-1-yl)-4-fluoro-5H-dibenzo[b,e][1,4]diazepine]
- [3H]CLZ binding in mouse brain sections, WT ([1]; competitor concentration 0.001, listed as J60): 106.379 and 101.292 and 102.926 and 122.941 and 108.508 and 97.311
- [3H]CLZ binding in mouse brain sections, WT ([1]; competitor concentration 0.01, listed as J60): 120.43 and 105.789 and 111.318 and 118.633 and 118.689 and 124.215
- [3H]CLZ binding in mouse brain sections, WT ([1]; competitor concentration 1, listed as J60): 55.5737 and 82.7293 and 46.5386 and 44.7797 and 54.5308 and 62.9299
- brain metabolic activity ([18F]FDG) (WT mice; 0.1 mg/kg): no significant brain metabolic changes
- brain metabolic activity ([18F]FDG) (WT mice; 0.1 mg/kg, listed as J60, 0.1 mg/kg): did not show any significant changes in brain metabolic activity
- [11C]clozapine binding after drug, L_Amygdala (endogenous binding sites; 0.1 mg kg-1): 0.2865
- [11C]clozapine binding after drug, PFC (endogenous binding sites; 0.1 mg kg-1): 0.3429
- in situ [3H]clozapine displacement in brain tissue from WT and D1-DREADD mice (hM3Dq): selective [^3H]clozapine displacement from DREADDs and not from other clozapine-binding sites
- [11C]clozapine displacement at hM4Di expressed in the amygdala (hM4Di; 0.1 mg kg-1 (lesser extent 0.01 mg kg-1)): produced [^11C]clozapine DREADD displacement at hM4Di
- [11C]clozapine binding after drug, R_Amygdala (hM4Di; 0.1 mg kg-1, hM4Di-expressing region): 0.6176

Compound: CCN1CCN(C2=Nc3cc(Cl)ccc3Nc3cccc(F)c32)CC1 [JHU37152, 8-Chloro-11-(4-ethylpiperazin-1-yl)-1-fluoro-5H-dibenzo[b,e][1,4]diazepine]
- [3H]CLZ binding in mouse brain sections, WT ([1]; competitor concentration 0.001, listed as J52): 119.578 and 91.3526 and 103.192 and 105.979 and 100.87 and 101.941
- [3H]CLZ binding in mouse brain sections, WT ([1]; competitor concentration 0.01, listed as J52): 85.3632 and 98.6721 and 100.487 and 96.5233 and 115.016 and 88.1843
- [3H]CLZ binding in mouse brain sections, WT ([1]; competitor concentration 1, listed as J52): 68.3087 and 51.6943 and 71.7816 and 75.1729 and 78.8993 and 70.8806
- in situ [3H]clozapine displacement in brain tissue from WT and D1-DREADD mice (hM3Dq): selective [^3H]clozapine displacement from DREADDs and not from other clozapine-binding sites
